Data as given in ChEMBL document CHEMBL5726278, “Cytochrome P450 inhibitors and their method of use” (2017).

assay: Cyp21 Assay : Cyp21 assay protocol: AD293 cells that stably over-express recombinant CYP-21 were seeded in 96 well plates coated with poly D-lysine (10,000 cell per well) and incubated at 37° C. for 24 hours in Dulbecco's Modified Eagle Medium (DMEM) with Fetal Bovine Serum (FBS) that is stripped of hormones by charcoal treatment. The media is then removed, the cells are washed once with Phosphate buffer saline solution, and 50 μL Dulbecco's Modified Eagle Medium (DMEM) with Fetal Bovine Serum (FBS) that is stripped of hormones by charcoal treatment is added. Compounds of the disclosure are then added to the wells in eight concentration spanning 10 μM to 4.5 nM, and the plates are incubated for an additional 60 minutes at 37° C. 17α-OH Progesterone is then added (1.0 μM) and the plates are incubated for an additional 45 minutes at 37° C. After incubation, 50 uL of the supernatant (medium) is transferred into a fresh plate and 150 uL of an acetonitrile solution containing 200 ng/ml of Telmisartan is added. The sample is mixed and then placed in a centrifuge at 2000 rpm for 5 minutes.; details: AD293, 24 h

Compound | IC50
CS(=O)(=O)N1CCN(c2ccc(/C=C/c3cc(F)cc(Cn4ccnc4)c3)cc2)CC1 | 10000 nM
CS(=O)(=O)N1CCN(c2ccc(/C=C/c3cc(Cl)cc(-c4ccncc4)c3)cc2)CC1 | 840 nM
CS(=O)(=O)N1CCN(c2ccc(/C=C/c3cc(Cl)cc(Cn4ccnc4)c3)cc2)CC1 | 2200 nM
CS(=O)(=O)N1CCN(c2ccc(/C=C/c3cc(F)cc(-c4ccncc4)c3)cc2)CC1 | 740 nM
N=C(N)N1CCN(c2ccc(/C=C/c3cc(F)cc(Cn4ccnc4)c3)cc2)CC1 | 10000 nM
Clc1cc(/C=C/c2ccc(N3CCN(C4=NCCO4)CC3)cc2)cc(-c2ccncc2)c1 | 1200 nM
CC(C)S(=O)(=O)N1CCN(c2ccc(/C=C/c3cc(Cl)cc(-c4ccncc4)c3)cc2)CC1 | 565 nM
CC(C)S(=O)(=O)N1CCN(c2ccc(/C=C/c3cc(F)cc(Cn4ccnc4)c3)cc2)CC1 | 700 nM
Fc1cc(/C=C/c2ccc(N3CCN(C4=NCCCO4)CC3)cc2)cc(Cn2ccnc2)c1 | 1000 nM
N=C(N)N1CCN(c2ccc(/C=C/c3cc(Cl)cc(Cn4ccnc4)c3)cc2)CC1 | 10000 nM
N=C(N)N1CCN(c2ccc(/C=C/c3cc(F)cc(-c4ccncc4)c3)cc2)CC1 | 10000 nM
O=S(=O)(C1CC1)N1CCN(c2ccc(/C=C/c3cc(Cl)cc(-c4ccncc4)c3)cc2)CC1 | 416 nM
Clc1cc(/C=C/c2ccc(N3CCN(C4=NCCO4)CC3)cc2)cc(Cn2ccnc2)c1 | 3500 nM
Fc1cc(/C=C/c2ccc(N3CCN(C4=NCCO4)CC3)cc2)cc(Cn2ccnc2)c1 | 10000 nM
Fc1cc(/C=C/c2ccc(N3CCN(C4=NCCO4)CC3)cc2)cc(-c2ccncc2)c1 | 1200 nM
N=C(N)N1CCN(c2ccc(/C=C/c3cc(Cl)cc(-c4ccncc4)c3)cc2)CC1 | 10000 nM
[C-]#[N+]CS(=O)(=O)N1CCN(c2ccc(/C=C/c3cc(F)cc(Cn4ccnc4)c3)cc2)CC1 | 10000 nM
